Measured values from US20230125482A1, “PROTEIN KINASE C MODULATORS” (Young Therapeutics, LLC, priority 2020, published 2023).
Where a SMILES comes first, the peptide text is derived from it. Where no end group is shown, it is not given here. The star is where a group is joined. Myristoyl = CCCCCCCCCCCCCC(=O)*

Key:
[1] = system: rat polymorphonuclear leukocytes (PMNs); assay: PMA-stimulated superoxide release in rat polymorphonuclear leukocytes (ferricytochrome c reduction, 550 nm); format: cell-based; conditions: for reduction of PMA (100 nM) induced leukocyte superoxide release: vs untreated PMA controls
Method: Change in absorbance at 550 nm via ferricytochrome c reduction by superoxide after stimulation with 100 nM phorbol 12-myristate 13-acetate (PMA) from time 0 to 390 sec was monitored in rat polymorphonuclear leukocytes (PMNs) (5×10^6) incubated for 15 min at 37° C. in the presence/absence of unconjugated PKCβII activator (PKCβII+) (SVEIWD (SEQ ID NO: 23)) or inhibitor (PKCβII−) (SLNPEWNET(SEQ ID NO: 5)), Myr−PKCβII+/−, Myr−PKCβII− scram (Myr-WNPESLNTE (Myristoylated SEQ ID NO: 17), Myr−TAT−PKC|II− (Myristoylated SEQ ID NO: 15) (all 20 μM) or superoxide dismutase (SOD; 10 μg/mL) (FIG. 7). Stock concentrations of compounds were dissolved in DMSO to yield a final concentration not greater that 0.2%. #: p<0.05 vs PMA, Native PKC βII+, Myr−PKC βII+ and Myr−TAT−PKC βII−; **: p<0.01 vs. all groups except Myr−TAT−PKC βII− or SOD; ++: p<0.01 vs. all groups. ANOVA post-hoc analysis was conducted using Bonferroni-Dunn.
The time course of changes in absorbance are summarized in FIGS. 8 (concentration response of Myr+TAT PKCβII−) and 9 (comparison of Myr+TAT+PKCβII− and Myr−PKCβII−, Myr−PKCβII− scrambled, and PKCβII− analogues and PMA controls). The peak response was reached by 300 seconds and maintained a plateau to 390 seconds, Myr+TAT+PKCβII− (20 μM; n=5) reduced phorbol 12-myristate 13-acetate (PMA, 100 nM) induced leukocyte superoxide release by 80%—a degree that was greater than all other study groups (p<0.01). In contrast, the Myr+PKCβII− (20 μM; n=27) reduced leukocyte superoxide release by only 30% (20 μM; n=27), again supporting the concept that the dual Myr−TAT conjugation produced greater results and reduced leukocyte superoxide release by ˜80% and ˜65% as compared to untreated PMA controls (n=74) and Myr+PKCβII− (20 μM; n=27), respectively.

isolated rat hearts = assay: Myocardial ischemia/reperfusion (I/R) injury in isolated rat hearts (Langendorff, ex vivo); conditions: for Final Coronary Flow / Final Heart Rate / Final LVDP / Final LVEDP / Final LVESP / Final dP/dtmax / Final dP/dtmin: 50 min post-reperfusion; for Initial Coronary Flow / Initial Heart Rate / Initial LVDP / Initial LVEDP / Initial LVESP / Initial dP/dtmax / Initial dP/dtmin: baseline before ischemia
Method: Rat hearts were isolated from anesthetized male Sprague Dawley rats (275-325 g), placed in ice-cold Krebs' buffer, and placed onto a Langendorff heart apparatus and retro perfused with Krebs' buffer at a constant pressure of 80 mmHg (FIG. 1). A pressure transducer measures heart rate, left ventricular end-systolic pressure, end-diastolic pressure, dP/dt max, and dP/dt min. Coronary flow is measured via a flow probe connected to the perfusion tubing. Cardiac function was recorded throughout the experimental protocol using a pressure transducer inserted into the left ventricle (15 min baseline; global I(30 min)/R(50 min)). Selected peptides of TABLE 1 or vehicle (control [0.05 to 0.2% Dimethylsulfoxide) were given during the first 5 min of reperfusion. All peptide inhibitors or activators were dissolved in 28% DMSO and the final concentration of DMSO with peptides or without peptides (control I/R hearts) delivered to all hearts was 0.06%. Statistical analysis was performed using ANOVA and Bonferroni-Dunn post-hoc test.
At the end of the experimental protocol, hearts were removed from the Langendorff apparatus, and frozen for 30 min at −20° C. Hearts were sectioned (2 mm) from base to apex and placed in 1% TTC for ˜10 min at 37° C. Viable tissue stained red and infarcted tissue was unstained (pale). Total tissue sections were weighed and infarcted tissue was separated from viable tissue and weighed to determine infarct size (i.e. infarct tissue weight/total tissue weight).

Solubility of peptide = format: physicochemical
[2] = ex vivo rat I/R hearts, FIG. 4, concentration not given
[3] = 10 μM, I(30 min)/R(50 min), infarct tissue weight/total tissue weight

Myr-YGRKKRRQRRRCCSLNPEWNET (Myristoyl-YGRKKRRQRRRCCSLNPEWNET; cysteine pairing not given here) [Myr+TAT+PKCβII−]
effect on PMA induced leukocyte superoxide release (in words) ([1]; 20 μM): virtually identical to the SOD standard | reduction of leukocyte superoxide release as compared to Myr+PKCβII− (20 μM) ([1]; 20 μM): ~65% | reduction of PMA (100 nM) induced leukocyte superoxide release ([1]; 20 μM): 80% | Infarct Size (isolated rat hearts; [2]): 5%

CCCCCCCCCCCCCC(=O)N[C@@H](CCC(=O)O)C(=O)N[C@@H](C)C(=O)N[C@H](C(=O)N[C@@H](CO)C(=O)N[C@@H](CC(C)C)C(=O)N[C@@H](CCCCN)C(=O)N1CCC[C@H]1C(=O)N[C@H](C(=O)O)[C@@H](C)O)C(C)C [Myr + PKCε-, Myr-EAVSLKPT] (Myristoyl-EAVSLKPT-OH; C-terminus assumed)
solubility (Solubility of peptide): ≤ 10 mM | concentration for similar restoration of post-reperfused cardiac function relative to Myr+TAT+PKCε− (isolated rat hearts): 100 × | reduction of infarct size compared to control I/R hearts (isolated rat hearts; 10 μM): did not reduce infarct size | restoration of post-reperfused cardiac function (isolated rat hearts; 10 μM): ineffective | Final Coronary Flow (isolated rat hearts; 10 μM): 10 ± 1 mL/min | Final Heart Rate (isolated rat hearts; 10 μM): 233 ± 10 BPM | Final LVDP (isolated rat hearts; 10 μM): 46 ± 8 mmHg | Final LVEDP (isolated rat hearts; 10 μM): 58 ± 3 mmHg | Final LVESP (isolated rat hearts; 10 μM): 104 ± 6 mmHg | Final dP/dtmax (isolated rat hearts; 10 μM): 723 ± 84 mmHg/s | Final dP/dtmin (isolated rat hearts; 10 μM): −694 ± 167 mmHg/s | Infarct Size (isolated rat hearts; [3]): 15 ± 4% | Initial Coronary Flow (isolated rat hearts; 10 μM): 17 ± 2 mL/min | Initial Heart Rate (isolated rat hearts; 10 μM): 258 ± 8 BPM | Initial LVDP (isolated rat hearts; 10 μM): 90 ± 5 mmHg | Initial LVEDP (isolated rat hearts; 10 μM): 6 ± 1 mmHg | Initial LVESP (isolated rat hearts; 10 μM): 95 ± 5 mmHg | Initial dP/dtmax (isolated rat hearts; 10 μM): 2294 ± 108 mmHg/s | Initial dP/dtmin (isolated rat hearts; 10 μM): −1548 ± 92 mmHg/s

SLNPEWNET (Atificially synthesized) [PKCβII−]
effect on PMA induced leukocyte superoxide release (in words) ([1]; 20 μM): did not exert a significant inhibition

Myr-LSETKPAV (Myristoyl-LSETKPAV) [Myr + PKCε- Scram.]
Final Coronary Flow (isolated rat hearts; 10 μM): 8 ± 2 mL/min | Final Heart Rate (isolated rat hearts; 10 μM): 236 ± 11 BPM | Final LVDP (isolated rat hearts; 10 μM): 51 ± 9 mmHg | Final LVEDP (isolated rat hearts; 10 μM): 56 ± 8 mmHg | Final LVESP (isolated rat hearts; 10 μM): 107 ± 4 mmHg | Final dP/dtmax (isolated rat hearts; 10 μM): 958 ± 265 mmHg/s | Final dP/dtmin (isolated rat hearts; 10 μM): −727 ± 133 mmHg/s | Infarct Size (isolated rat hearts; [3]): 14 ± 3% | Initial Coronary Flow (isolated rat hearts; 10 μM): 19 ± 3 mL/min | Initial Heart Rate (isolated rat hearts; 10 μM): 278 ± 10 BPM | Initial LVDP (isolated rat hearts; 10 μM): 87 ± 4 mmHg | Initial LVEDP (isolated rat hearts; 10 μM): 9 ± 2 mmHg | Initial LVESP (isolated rat hearts; 10 μM): 96 ± 6 mmHg | Initial dP/dtmax (isolated rat hearts; 10 μM): 2307 ± 55 mmHg/s | Initial dP/dtmin (isolated rat hearts; 10 μM): −1571 ± 72 mmHg/s

Superoxide dismutase [SOD, reference compound]
attenuation of leukocyte superoxide release ([1]; 10 ug/ml, positive control): ~94%

Myr-YGRKKRRQRRRCCLSETKPAV (Myristoyl-YGRKKRRQRRRCCLSETKPAV; cysteine pairing not given here) [Myr + TAT + PKCε- Scram.]
Final Coronary Flow (isolated rat hearts; 1 nM): 7 ± 2 mL/min | Final Heart Rate (isolated rat hearts; 1 nM): 225 ± 1 BPM | Final LVDP (isolated rat hearts; 1 nM): 50 ± 11 mmHg | Final LVEDP (isolated rat hearts; 1 nM): 53 ± 4 mmHg | Final LVESP (isolated rat hearts; 1 nM): 103 ± 14 mmHg | Final dP/dtmax (isolated rat hearts; 1 nM): 993 ± 195 mmHg/s | Final dP/dtmin (isolated rat hearts; 1 nM): −760 ± 210 mmHg/s | Infarct Size (isolated rat hearts; 1 nM, I(30 min)/R(50 min), infarct tissue weight/total tissue weight): 19 ± 2% | Initial Coronary Flow (isolated rat hearts; 1 nM): 15 ± 1 mL/min | Initial Heart Rate (isolated rat hearts; 1 nM): 278 ± 10 BPM | Initial LVDP (isolated rat hearts; 1 nM): 87 ± 1 mmHg | Initial LVEDP (isolated rat hearts; 1 nM): 6 ± 0.4 mmHg | Initial LVESP (isolated rat hearts; 1 nM): 92 ± 1 mmHg | Initial dP/dtmax (isolated rat hearts; 1 nM): 2267 ± 87 mmHg/s | Initial dP/dtmin (isolated rat hearts; 1 nM): −1490 ± 82 mmHg/s | Final Coronary Flow (isolated rat hearts; 100 nM): 12 ± 4 mL/min | Final Heart Rate (isolated rat hearts; 100 nM): 295 ± 29 BPM | Final LVDP (isolated rat hearts; 100 nM): 36 ± 12 mmHg | Final LVEDP (isolated rat hearts; 100 nM): 57 ± 10 mmHg | Final LVESP (isolated rat hearts; 100 nM): 93 ± 9 mmHg | Final dP/dtmax (isolated rat hearts; 100 nM): 706 ± 223 mmHg/s | Final dP/dtmin (isolated rat hearts; 100 nM): −677 ± 222 mmHg/s | Infarct Size (isolated rat hearts; 100 nM, I(30 min)/R(50 min), infarct tissue weight/total tissue weight): 14 ± 3% | Initial Coronary Flow (isolated rat hearts; 100 nM): 21 ± 6 mL/min | Initial Heart Rate (isolated rat hearts; 100 nM): 271 ± 16 BPM | Initial LVDP (isolated rat hearts; 100 nM): 91 ± 5 mmHg | Initial LVEDP (isolated rat hearts; 100 nM): 9 ± 2 mmHg | Initial LVESP (isolated rat hearts; 100 nM): 100 ± 4 mmHg | Initial dP/dtmax (isolated rat hearts; 100 nM): 2300 ± 189 mmHg/s | Initial dP/dtmin (isolated rat hearts; 100 nM): −1545 ± 117 mmHg/s | Final Coronary Flow (isolated rat hearts; 10 μM): 3 ± 0.1 mL/min | Final Heart Rate (isolated rat hearts; 10 μM): 684 ± 167 BPM | Final LVDP (isolated rat hearts; 10 μM): 3 ± 2 mmHg | Final LVEDP (isolated rat hearts; 10 μM): 70 ± 10 mmHg | Final LVESP (isolated rat hearts; 10 μM): 72 ± 8 mmHg | Final dP/dtmax (isolated rat hearts; 10 μM): 27 ± 9 mmHg/s | Final dP/dtmin (isolated rat hearts; 10 μM): −24 ± 8 mmHg/s | Infarct Size (isolated rat hearts; [3]): 16 ± 6% | Initial Coronary Flow (isolated rat hearts; 10 μM): 18 ± 1 mL/min | Initial Heart Rate (isolated rat hearts; 10 μM): 275 ± 12 BPM | Initial LVDP (isolated rat hearts; 10 μM): 86 ± 1 mmHg | Initial LVEDP (isolated rat hearts; 10 μM): 6 ± 1 mmHg | Initial LVESP (isolated rat hearts; 10 μM): 92 ± 0.3 mmHg | Initial dP/dtmax (isolated rat hearts; 10 μM): 2309 ± 69 mmHg/s | Initial dP/dtmin (isolated rat hearts; 10 μM): −1604 ± 71 mmHg/s

Myr-WNPESLNTE (Myristoyl-WNPESLNTE) [Myr−PKCβII− scrambled]
effect on PMA induced leukocyte superoxide release (in words) ([1]; 20 μM): increased | Infarct Size (isolated rat hearts; [2]): 22±2%

YGRKKRRQRRRCCEAVSLKPT (not fully specified; cysteine pairing not given here) [TAT + PKCε-]
reduction of infarct size compared to control I/R hearts (isolated rat hearts; 10 μM): did not reduce infarct size | Final Coronary Flow (isolated rat hearts; 10 μM): 12 ± 4 mL/min | Final Heart Rate (isolated rat hearts; 10 μM): 242 ± 18 BPM | Final LVDP (isolated rat hearts; 10 μM): 37 ± 12 mmHg | Final LVEDP (isolated rat hearts; 10 μM): 63 ± 2 mmHg | Final LVESP (isolated rat hearts; 10 μM): 100 ± 13 mmHg | Final dP/dtmax (isolated rat hearts; 10 μM): 678 ± 223 mmHg/s | Final dP/dtmin (isolated rat hearts; 10 μM): −723 ± 84 mmHg/s | Infarct Size (isolated rat hearts; [3]): 18 ± 2% | Initial Coronary Flow (isolated rat hearts; 10 μM): 20 ± 2 mL/min | Initial Heart Rate (isolated rat hearts; 10 μM): 285 ± 10 BPM | Initial LVDP (isolated rat hearts; 10 μM): 86 ± 5 mmHg | Initial LVEDP (isolated rat hearts; 10 μM): 7 ± 2 mmHg | Initial LVESP (isolated rat hearts; 10 μM): 93 ± 3 mmHg | Initial dP/dtmax (isolated rat hearts; 10 μM): 2408 ± 126 mmHg/s | Initial dP/dtmin (isolated rat hearts; 10 μM): −1735 ± 149 mmHg/s

Myr-SLNPEWNET (Myristoyl-SLNPEWNET) [Myr+PKCβII−]
reduction of PMA (100 nM) induced leukocyte superoxide release ([1]; 20 μM): 30% | Infarct Size (isolated rat hearts; [2]): 13±2%
